Measured values: US20260234188A1, “CHEMOKINE-BINDING PEPTIDES” (Oxford University Innovation Limited, priority 2022, published 2026)
Entries after “also recorded” stand apart in the source; their conditions may differ.

Columns and labels:
CXCL9 = molecular target: T1, CXCL9 (Homo sapiens, UniProt Q07325); assay: CXCL9-induced activated T-cell migration, transwell assay; assay type: cell-based; details: HD2 mutant peptides 10 μM, chemokine at EC80
T1 construct: purchased Peprotech
T1 sequence (Q07325 23-125): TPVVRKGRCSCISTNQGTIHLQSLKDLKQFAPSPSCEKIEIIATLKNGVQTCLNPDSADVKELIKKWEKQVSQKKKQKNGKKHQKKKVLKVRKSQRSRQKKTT
Experimental: (§1) FIG. 2. […] BK1.2 is described in (Darlot, 2020). […] Chemokines used are indicated by the name, followed in parenthesis by the supplier code (P in supplier code indicates Peprotech). […] All experiments were performed at EC80 doses of indicated chemokine. Data are shown as box-whisker plots of three technical and three biological replicates. Statistically significant differences (compared to control, indicated by #), using Dunnett's test with correction for multiple comparisons, are indicated by asterisks: ****=P≤0.0001, ***=P≤0.001, **=P≤0.01, *=P≤0.05.
(§2) Briefly, cell migration assays use THP1 cells (human monocyte) and primary human buffy coat white cells (consisting of neutrophil granulocytes, monocytes, and lymphocytes), and activated T-cells. THP1 cells and primary monocytes respond to CCL2, CCL3, CCL5, CCL8 and CXCL4, granulocytes to CXCL1 and CXCL8, activated T-cells to CXCL9/10/11. Assays are performed in 96-well Boyden chambers, and migrated cells counted and characterized using and ATTUNE Flow Cytometer as described. Triplicate assays are performed at the EC80 dose of each chemokine at 10 μM peptide concentration.
(§3) The J:CXCR1 cell line was generated by transfecting Jurkat cells by electroporation with PvuI-linearized plasmid D1398 and selecting with blasticidin (Sigma-Aldrich, Cat #203350, […]). […] J:CXCR1 cells were cultured in RPMI-1640 media (Gibco), supplemented with 10% FBS and 5 mM L-Glutamine with blasticidin. For J:CXCR1 migration assays, 300,000 cells/well were added to the top chamber of a 3 μm Transwell insert (Corning) in 50 μL of migration media (RPMI-1640, 0.5% FBS, 4 mM L-Glutamine, 0.05% DMSO). The bottom chamber contained 150 μL of chemokine, with or without peptide. Cells were migrated at 37° C. in 5% CO2 for 4 hours. The plate was incubated on a shaking platform for 10 minutes, 800 rpm, at 37° C., and 150 μL from the bottom of the plate transferred into a U-bottom plate containing 50 μL of migration media. Cell counts were determined by Attune NxT Flow Cytometer Plate Reader (ThermoFisher), based on cell size parameters FSC-H/SSC-H. Experiments were performed in 3 technical and 3 biological replicates. THP-1 migration assays were carried out using methods known in the art. Activated T-cell assays were carried out using methods known in the art, with the following modifications in the isolation process. Peripheral blood cells were obtained from leucocyte cones (NHS Blood Transfusion Services), following which, T-cells were isolated using two rounds of human CD8+ T-cell isolation kit (480011, BioLegend). At day 10 after activation, T-cells were frozen at 20 E6 cells/ml in TexMACS medium supplemented with 10% DMSO (D2650, Sigma) in liquid nitrogen. Prior to use, activated T-cells were recovered for 24 hours in TexMACs medium at 0.3 E6 cells/ml and incubated at 37° C. in 5% CO2. Chemokine sources are described in Supplementary information Table 3. Statistical significances between control experimental groups was evaluated using Dunnett's test. IC50 experiments were performed at the EC80 dose of chemokine. EC80 was calculated by fitting a chemokine dose-response curve with 3 parameters (fixing the top to 100%). IC50 was calculated by fitting an inhibitor response curve with 4 parameters.

[1] = system: panel of 24 biotinylated chemokines; assay: Phage-display screen of HD2 NNK saturation mutagenesis library; assay type: binding, human
Description: (§4) FIG. 7. Exemplar results from phage display screens using saturation mutagenesis. A phage-display library was constructed using the HD2 sequence, replacing each residue encoding codon with the degenerate sequence NNK. The 16 degenerate sequences (which also encoded the parental HD2 sequence) were pooled and cloned into display phage. […] Exemplar peptides were selected such that log 2 E for at least one chemokine was greater than 5, and log 2 E for binding to control (CO5, was less than zero). […] The fold enrichment of parental HD2 is also indicated.
as §4, with “A” for “FIG. 7. Exemplar results from phage display screens using saturation mutagenesis. A”
A molecular level understanding of binding mechanism is needed for development of peptides as therapeutics and is usually obtained from structural analyses. As HD2 binds many chemokines this becomes a challenging task, and we explored if we could elucidate this using phage display mutagenesis. The role of each residue in HD2 for binding was examined in phage-display. A library of HD2 mutations that had NNK substituted at each residue and performed phage-display selection against a panel of 24 biotinylated chemokines, in parallel, as described in Example 7. This strategy allowed us to evaluate the impact not only of Ala substitutions, but also conservative, hydrophilic and hydrophobic substitutions, and compare with binding of parental HD2 which is also included in the library. Ala substitution removes side-chains beyond the β-carbon and can be used to infer the role of side-chain functional groups without affecting conformational flexibility of the backbone. […] These residues are within the two motifs identified previously. Other notable residues identified were Y8 and P10. We next judged the impact of Ala mutation by calculating the change in log 2 E (Δlog 2 E) between the mutant and parental HD2. A positive value of Δlog 2 E indicates increased binding, and a negative value decreased binding compared to parental HD2. […] As may be seen, the log 2 E for the parental HD2 was ~0 in these analyses indicating lack of enrichment.
Oligonucleotide pools were amplified using primers: oligo_fwd: 5′-[…] and oligo_rev2: 5′-tcgtcaccctcggcgcctcctcoggatcctccacc. Oligonucleotide PCR products were cloned into plasmid prSTOP4Nsi using NEB Builder HiFi Assembly following instructions of the manufacturer. The vector pool was used to transform electrocompetent Invitrogen ElectroMAX™ DH5α-E™ cells. Plasmid DNA was harvested by MaxiPrep (GeneJet Plasmid Maxiprep Kit) and was transformed into SS320 phage display electrocompetent cells (Lucigen), following the manufacturer's protocol, resuspended in 950 μL recovery media for each electroporation, transferred to 50 mL Falcon tubes, 100 μL 1011 CFU/mL M13KO7 helper phage (NEB) added and shaken at 37° C., 220 RPM for 1 h. 1 mL recovery culture was added to 2YT medium containing +50 ug/mL carbenicillin and 25 ug/mL kanamycin, and grown overnight at 37C, 220 rpm. Phage was precipitated from the culture supernatant by adding 22.5 mL of supernatant to 4.5 mL 20% PEG 8000/2.5 M NaCl, incubating on ice for 30 min, and centrifuging at 10,000 RPM, 4° C. for 10 min, and resuspending phage in 1 ml of PBT, followed by centrifugation at 13000 RPM, 4° C., for 10 min. […]

CCL21 = molecular target: T2, CCL21 (Homo sapiens, UniProt O00585); assay: CCL21-induced cell migration assay; assay type: cell-based; details: HD2 mutant peptides 10 μM, chemokine at EC80
T2 sequence (O00585 24-134): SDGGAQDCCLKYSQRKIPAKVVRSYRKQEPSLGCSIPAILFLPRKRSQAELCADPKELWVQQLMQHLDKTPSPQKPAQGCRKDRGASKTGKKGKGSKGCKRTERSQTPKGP
Experimental: FIGS. 24 and 25. Effect of exemplar mutant HD2 peptides on chemotaxis. Box-whisker plots showing the effect of the exemplar mutant HD2 peptides on cell migration induced by indicated human chemokines. All experiments were performed as at least three technical and between one to three biological replicates, and individual data points are indicated. […] Chemokine and cell type names are indicated. HD2SCR is a scrambled version of HD2 used as negative control. All peptides were at 10 μM final concentration and chemokines at EC80 doses. Statistically significant differences (compared to control, coloured blue), using Dunnett's test with correction for multiple comparisons, are indicated by asterisks: ****=P≤0.0001, ***=P≤0.001, **=P≤0.01, *=P≤0.05.
as §3
Migration assays using THP1, activated T-cell (ATC) and J:CXCR1 (Jurkat cells stably transfected with CXCR1 receptor) were performed as described previously. IC50 experiments were performed at the EC80 dose of chemokine. EC80 was calculated by fitting a chemokine dose-response curve with 3 parameters (fixing the top to 100%). IC50 was calculated by fitting an inhibitor response curve with 4 parameters. R-packages used were ggupset_0.3.0, DescTools_0.99.44, and drc_3.0-1.

CCL8 = molecular target: T3, CCL8 (Homo sapiens, UniProt P80075); assay: cell-based; details: peptide 10 μM, chemokine at EC80, versus scrambled control HD2SCR
T3 construct: purchased Peprotech
T3 sequence (P80075 24-99): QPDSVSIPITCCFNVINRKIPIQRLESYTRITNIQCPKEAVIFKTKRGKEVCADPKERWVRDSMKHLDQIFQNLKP
Experimental: as §1
FIG. 3. […] Chemokines used are indicated by the name, followed in parenthesis by the supplier code (P in supplier code indicates Peprotech). […] All experiments were performed at EC80 doses of indicated chemokine.
as §2
The J:CXCR1 cell line was generated by transfecting Jurkat cells by electroporation with PvuI-linearized plasmid D1398 and selecting with blasticidin (Sigma-Aldrich, Cat #203350, […]). […] J:CXCR1 cells were cultured in RPMI-1640 media (Gibco), supplemented with 10% FBS and 5 mM L-Glutamine with blasticidin. For J:CXCR1 migration assays, 300,000 cells/well were added to the top chamber of a 3 μm Transwell insert (Corning) in 50 μL of migration media (RPMI-1640, 0.5% FBS, 4 mM L-Glutamine, 0.05% DMSO). The bottom chamber contained 150 μL of chemokine, with or without peptide. Cells were migrated at 37° C. in 5% CO2 for 4 hours. […]

[2] = system: panel of up to 42 human chemokines; assay: Phage-display next generation sequencing screen of overlapping hexadecapeptide libraries, chemokines displayed on streptavidin beads; assay type: binding; details: log2E greater than 5, chemokines named by first part of UniProt Entry Name, peptides binding complement C5a (control) excluded;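 further: chemokine listed when log2 fold enrichment exceeds 5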
Method in brief: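 Phage-display libraries of 55662 overlapping hexadecapeptides from tick and viral chemokine-binding proteins, human chemokines and chemokine receptors screened against up to 42 human chemokines, with hits found by next-generation sequencing. Peptides mapped to parent-protein position with log2 fold enrichment; regions of interest where cumulative residue log2 E exceeds the 95% upper CI of the protein median.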

[3] = HD2 saturation mutants, chemokines on streptavidin beads, UniProt entry names

Sequence | chemotaxis compared with the parental HD2 peptide (CXCL9) | Chemokines Bound log2E 1-5 [1, 3] | Chemokines Bound log2E > 5 [1, 3] | mean log 2 E compared to parental HD2 ([1]; over CC chemokines) | mean log 2 E compared to parental HD2 ([1]; over all chemokines) | chemotaxis compared with the parental HD2 peptide (CCL21) | inhibition of cell migration (CCL8) | Chemokines Bound [2]
EEDDYTAYAPITCYFT [HD2_I11] | significant reduction in chemotaxis | CCL1, CCL11, CCL17, CCL18,; also recorded: CCL19, CCL2, CCL22, CCL28,; also recorded: CCL3, CCL4, CCL5, CCL8, X3CL1,; also recorded: CXL10, CXL11, SDF1, CXL13, IL8 | CCL15 | significant improvement | significant improvement | significant reduction in chemotaxis |  | 
DEDYEDFFKPVTCYFA [HD540] |  |  |  |  |  |  | inhibition | CCL18, CCL22,; also recorded: CCL5, CCL8
